Counter-ions that a name gives are not always drawn.
What was measured:
recombinant human MMP-13 = target: T1, recombinant human MMP-13 (Homo sapiens, UniProt P45452); assay: In vitro metalloprotease inhibition, fluorogenic MCA peptide substrate; assay type: biochemical; conditions: recombinant human MMP-13, APMA activated; room temperature; substrate 4 μM; 1 percent DMSO
T1 construct: made in house
Description: (§1) Several of the compounds prepared in the manner described in the previous Examples were assayed for activity by an in vitro assay. Following the procedures of Knight et al., FEBS Lett. 296(3):263 (1992). Briefly, 4-aminophenylmercuric acetate (APMA) or trypsin activated MMPs were incubated with various concentrations of the inhibitor compound at room temperature for 5 minutes.
(§2) More specifically, recombinant human MMP-13 and MMP-1 enzymes were prepared in laboratories of the assignee. MMP-13 was expressed in baculovirus as a proenzyme, and purified first over a heparin agarose column and then over a chelating zinc chloride column. The proenzyme was activated by APMA for use in the assay. MMP-1 expressed in transfected HT-1080 cells was provided by Dr. Howard Welgus of Washington University, St. Louis, Mo. The enzyme was also activated using APMA and was then purified over a hydroxamic acid column.
(§3) The enzyme substrate is a methoxycoumarin-containing polypeptide having the following sequence:
(§4) MCA-ProLeuGlyLeuDpaAlaArgNH^2, wherein MCA is methoxycoumarin and Dpa is 3-(2,4-dinitrophenyl)-L-2,3-diaminopropionyl alanine. This substrate is commercially available from Baychem as product M-1895.
(§5) The buffer used for assays contained 100 mM Tris-HCl, 100 mM NaCl, 10 mM CaCl2 and 0.05 percent polyethyleneglycol (23) lauryl ether at a pH value of 7.5. Assays were carried out at room temperature, and dimethyl sulfoxide (DMSO) at a final concentration of 1 percent was used to dissolve inhibitor compound.
(§6) The assayed inhibitor compound in DMSO/buffer solution was compared to an equal amount of DMSO/buffer with no inhibitor as control using Microfluor™ White Plates (Dynatech). The inhibitor or control solution was maintained in the plate for 10 minutes and the substrate was added to provide a final concentration of 4 μM.
(§7) In the absence of inhibitor activity, a fluorogenic peptide was cleaved at the gly-leu peptide bond, separating the highly fluorogenic peptide from a 2,4-dinitrophenyl quencher, resulting in an increase of fluorescence intensity (excitation at 328 nm/emission at 415 nm). Inhibition was measured as a reduction in fluorescent intensity as a function of inhibitor concentration, using a Perkin Elmer L550 plate reader. The IC50 values were calculated from those values. The results are set forth in the Inhibition Table below, reported in terms of IC50.

recombinant human MMP-1 = target: T2, recombinant human MMP-1 (Homo sapiens, UniProt P03956); assay: as above; assay type: biochemical; conditions: recombinant human MMP-1, APMA activated; room temperature; substrate 4 μM; 1 percent DMSO
T2 construct: made in house; host or cells: transfected HT-1080 cells (provided by Dr. Howard Welgus, Washington University)
T2 sequence (P03956 100-469): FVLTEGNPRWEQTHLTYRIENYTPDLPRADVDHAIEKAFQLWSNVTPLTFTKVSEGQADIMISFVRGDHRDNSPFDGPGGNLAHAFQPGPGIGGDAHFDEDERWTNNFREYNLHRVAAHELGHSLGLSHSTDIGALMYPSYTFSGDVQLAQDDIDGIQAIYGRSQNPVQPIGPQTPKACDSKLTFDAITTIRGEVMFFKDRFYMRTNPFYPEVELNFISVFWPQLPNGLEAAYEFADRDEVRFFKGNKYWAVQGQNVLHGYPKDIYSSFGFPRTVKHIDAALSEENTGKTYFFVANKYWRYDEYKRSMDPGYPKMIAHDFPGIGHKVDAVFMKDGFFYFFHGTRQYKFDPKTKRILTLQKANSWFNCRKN
Description: as §1, §2, §3, §4, §5, §6, §7

[1] = test system: solid tumor cancers (colorectal, pancreatic, ovarian, prostate); conditions: cited from earlier work

IC50 (recombinant human MMP-13)	IC50 (recombinant human MMP-1)	SMILES	rise of cancer-specific antigens used as surrogate markers for biological activity ([1]; Phase I/II, patients with advanced, treatment-refractory solid tumor cancers)	most common drug-related toxicity ([1]; clinical trials, patients)
0.5 nM	1800 nM	C[C@H](C(=O)NO)N(CCN1CCOCC1)S(=O)(=O)c1ccc(Sc2ccccc2)cc1 [Example 3g, N-hydroxy-2R-[[2-(4-morpholinyl)ethyl][[4-(phenylthio)phenyl]sulfonyl]amino]propanamide]		
0.1 nM	> 10000 nM	Cc1ccc(Sc2ccc(S(=O)(=O)N(CCN3CCOCC3)[C@H](C)C(=O)NO)cc2)cc1 [Example 4f, N-hydroxy-2R-[[2-(4-morpholinyl)ethyl][[4-[(4-methylphenyl)thio]phenyl]sulfonyl]-amino]-propanamide, Monohydrochloride]		
1.6 nM	> 10000 nM	O=C(CN(CCN1CCOCC1)S(=O)(=O)c1ccc(SC2CCCCC2)cc1)NO [Example 5f, [[[4-(Cyclohexylthio)phenyl]sulphonyl][2-(4-morpholinyl)ethyl]amino]-N-hydroxyacetamide]		
0.1 nM	4000 nM	O=C(CN(CCN1CCOCC1)S(=O)(=O)c1ccc(Sc2ccccc2)cc1)NO [Example 6e, 2-[[[4-(phenylthio)phenyl]sulphonyl][2-(4-morpholinyl)ethyl]amino]-N-hydroxyacetamide, Hydrochloride]		
0.3 nM	560 nM	CC(C)[C@H](C(=O)NO)N(CCN1CCOCC1)S(=O)(=O)c1ccc(Sc2ccccc2)cc1 [Example 7f, N-hydroxy-3-methyl-2R-[[(4-phenylthio)-phenyl]-sulfonyl]-[2-(4-morpholinyl)-ethyl]amino]-butanamide, Monohydrochloride]		

Continued, compound first:

SMILES	IC50 (recombinant human MMP-13)	IC50 (recombinant human MMP-1)	rise of cancer-specific antigens used as surrogate markers for biological activity ([1]; Phase I/II, patients with advanced, treatment-refractory solid tumor cancers)	most common drug-related toxicity ([1]; clinical trials, patients)
Cc1cccc(Sc2ccc(S(=O)(=O)N(CCN3CCOCC3)[C@@H](C(=O)NO)C(C)C)cc2)c1 [Example 1g, N-hydroxy-3-methyl-2R-[[[4-[(3-methylphenyl)thio]phenyl]sulfonyl]-[2-(4-morpholinyl)-ethyl]amino]-butanamide, Monohydrochloride]	1.9 nM	1500 nM		
Cc1ccc(Sc2ccc(S(=O)(=O)N(CCN3CCOCC3)[C@@H](C(=O)NO)C(C)C)cc2)cc1 [Example 2e, N-hydroxy-3-methyl-2R-[[[4-[(4-methylphenyl)-thio]phenyl]sulfonyl][2-(4-morpholinyl)ethyl]-amino]-butanamide, Monohydrochloride]	0.5 nM	2000 nM		
CC(C)[C@H](C(=O)NO)N(CCN1CCCCC1)S(=O)(=O)c1ccc(Sc2ccccc2)cc1 [Example 8d, N-hydroxy-3-methyl-2R-[[(4-phenylthio)-phenyl]-sulfonyl]-[2-(1-piperidinyl)-ethyl]amino]-butanamide, Monohydrochloride]	1 nM	500 nM		
CNC(=O)[C@@H](NC(=O)[C@H](CC(C)C)[C@H](O)C(=O)NO)C(C)(C)C [marimastat]			dose-related reduction	musculoskeletal pain and stiffness

From US20040034071A1, “Thioaryl sulfonamide hydroxamic acid compounds” (priority 1999, published 2004)
